The values below come from patent US8026359B2, “Fungicidal heterocyclic amines” (E.I. du Pont de Nemours and Company, priority 2007, dated 2011).

What all share (assay type): in vivo
One assay deals with Botrytis cinerea. Nature of the assay: Test F: tomato Botrytis, preventive spray on tomato seedlings. The following applies: 200 ppm, 100 = 100% disease control, 0 = no control relative to controls. The method in brief:
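Compounds dissolved in acetone (3% of final volume), suspended in 50/50 acetone/water with 250 ppm Trem® 014. Sprayed preventively to run-off on tomato seedlings at 200 ppm (500 g/ha) or 40 ppm.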

For another assay, the system named is Pythium aphanidermatum. Nature of the assay: Test M: bluegrass pythium blight, preventive spray on bluegrass seedlings. The following applies: 200 ppm; 100 = 100% disease control, 0 = no control relative to controls.
For the next assay, the system named is Septoria tritici. Nature of the assay: Test D: wheat leaf blotch, preventive spray on wheat seedlings. The following applies: 200 ppm, 100 = 100% disease control, 0 = no control relative to controls. The essentials: (§1)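 Each test compound, pre-dissolved in acetone, was suspended in aqueous acetone containing surfactant and sprayed onto the plants to the point of run-off at 200 or 40 ppm.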

The next assay deals with Phytophthora infestans. The following applies: 200 ppm; 100 = 100% disease control, 0 = no control relative to controls.
Another assay deals with Fusarium graminearum. Nature of the assay: whole plant or invertebrate.
For the next assay, the system named is Sclerotinia sclerotiorum. Nature of the assay: Test G: cucumber white mold, preventive spray on cucumber seedlings. The following applies: 200 ppm; 100 = 100% disease control, 0 = no control relative to controls. From the text:
(§2) General protocol for preparing test suspensions for Tests A-R: The test compounds were first dissolved in acetone in an amount equal to 3% of the final volume and then suspended at the desired concentration (in ppm) in acetone and purified water (50/50 mix) containing 250 ppm of the surfactant Trem® 014 (polyhydric alcohol esters). The resulting test suspensions were then used in tests A-R. In Tests A-M, compounds were sprayed as a 200 ppm test suspension (equivalent to a rate of 500 g/ha) or as a 40 ppm test suspension to the point of runoff on the test plants. In Tests N-R, compounds were sprayed as a 100 g/ha test suspension (equivalent to a rate of 100 ppm) on the test plants at an application volume of 1000 L/ha. The test suspension was sprayed to the point of run-off on cucumber seedlings.

In another assay the test system is Plasmopara viticola. Nature of the assay: Test L: grape downy mildew, spray after inoculation of grape seedlings. The following applies: 200 ppm; 100 = 100% disease control, 0 = no control relative to controls.
From the text: as §2, with “L/ha. Grape seedlings were inoculated with a spore suspension of Plasmopara viticola (the causal agent of grape downy mildew) and incubated in a saturated atmosphere at 20° C. for 24 h. After a short drying period, the” for “L/ha. The”, “on the grape seedlings and then moved to a growth chamber at 20° C. for 6 days, after which time the test units were placed back into a saturated atmosphere at 20° C. for 24 h. Upon removal, disease ratings were made.” for “on cucumber seedlings.”

The subject of a further assay is Septoria nodorum. Nature of the assay: Test C: wheat glume blotch, preventive spray on wheat seedlings. The following applies: 200 ppm, 100 = 100% disease control, 0 = no control relative to controls. The method in brief: as §1
Assay [1] concerns Colletotrichum orbiculare. Nature of the assay: Test I: cucumber Colletotrichum anthracnose, preventive spray on cucumber seedlings. The following applies: 100 = 100% disease control, 0 = no control relative to controls. The essentials: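 Compound was dissolved in acetone (3% of final volume), then suspended in 50/50 acetone/water with 250 ppm Trem 014 surfactant. Cucumber seedlings were sprayed to run-off as a preventive treatment at 200 ppm (equivalent to 500 g/ha) or 40 ppm.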

For a further assay, the system named is Rhizoctonia oryzae. Nature of the assay: Test J: turf brown patch, preventive spray on creeping bent grass seedlings. The following applies: 200 ppm; 100 = 100% disease control, 0 = no control relative to controls.
From the text: as §2, with “creeping bent grass” for “cucumber”

For assay [2], the system named is Puccinia recondita f. sp. tritici. Nature of the assay: Test B: wheat leaf rust, preventive spray on wheat seedlings. The following applies: 200 ppm, 100 = 100% disease control, 0 = no control relative to controls. The essentials: as §1
The test system of assay [3] is Erysiphe graminis f. sp. tritici. Nature of the assay: Test A: wheat powdery mildew, preventive spray on wheat seedlings. The following applies: 200 ppm, 100 = 100% disease control, 0 = no control relative to controls. The essentials:
as §1

As to `COCC(C)Nc1nccc(-c2ccnc(Nc3cccc(F)c3)c2)n1` (stereo not drawn) [Compound 41], in the assay on Botrytis cinerea, the “Test F disease control rating” value worked out at 96%. Further, the “Test M disease control rating” value with Pythium aphanidermatum is 0%. Further, the “Test D disease control rating” value with Septoria tritici was determined as 15%. Moreover, in the assay with Phytophthora infestans, the “Test K disease control rating” value was 0%. Further, in the assay on Fusarium graminearum (200 ppm, 100 = 100% disease control, 0 = no control relative to controls), the “Test E disease control rating” value was determined as 45%. Further, in the assay on Sclerotinia sclerotiorum, the “Test G disease control rating” value is 94%. For the same molecule, the “Test L disease control rating” value in the assay on Plasmopara viticola is given as 0%. The “Test C disease control rating” value in the assay with Septoria nodorum is recorded as 99%. In addition, in [1] (200 ppm), the “Test I disease control rating” value is 54%. The “Test J disease control rating” value in the assay with Rhizoctonia oryzae is given as 34%. For the same molecule, the “Test B disease control rating” value in assay [2] was 98%. In addition, in assay [3], the “Test A disease control rating” value is 57%.
In the case of `COCC(C)Nc1nccc(-c2ccnc(Nc3cccc(Cl)c3)c2)n1` (stereo not drawn) [Compound 40, 4-[2-[(3-chlorophenyl)amino]-4-pyridinyl]-N-(2-methoxy-1-methylethyl)-2-pyrimidinamine], the pest or weed control at 200 ppm with Botrytis cinerea (Botrytis cinerea, 120 h, read-out: Test F disease control rating) is 99%; in the assay with Septoria tritici (Zymoseptoria tritici, 504 h, read-out: Test D disease control rating), 27%; in the assay on Fusarium graminearum (Fusarium graminearum, in Triticum aestivum, 192 h, read-out: Test E disease control rating), 48%; in the assay on Septoria nodorum (Parastagonospora nodorum, 216 h, read-out: Test C disease control rating), 99%; in assay [1] (Colletotrichum orbiculare, 144 h, read-out: Test I disease control rating) it was 84%; in assay [2] (Puccinia recondita, 192 h, read-out: Test B disease control rating), 90%. Also, in assay [3] (Blumeria graminis, 192 h, read-out: Test A disease control rating), the pest or weed control at 200 ppm was 63%. Besides, the “Test M disease control rating” value with Pythium aphanidermatum was 0%. In addition, the “Test K disease control rating” value with Phytophthora infestans is reported as 0%. The “Test G disease control rating” value in the assay on Sclerotinia sclerotiorum is on record as 83%. Further, in the assay on Plasmopara viticola, the “Test L disease control rating” value was found to be 0%. For the same molecule, the “Test J disease control rating” value with Rhizoctonia oryzae was 0%.
